One experiment concerns HT-29. In words: Cytotoxicity against human HT-29 cells after 96 hrs by MTT assay. The class given is functional, cell-based. The settings on record: HT-29, 96 h.
The subject of a further experiment is HCT-116. The experiment in a line: Cytotoxicity against human HCT116 cells after 96 hrs by MTT assay. The experiment is classed as functional, cell-based. The settings on record: HCT-116, 96 h. In general terms: Tetrazolium assays rely on reduction of a dye to a coloured formazan, in cell work by metabolically active cells.

As a reminder, the IC50 is the concentration that inhibits the measured activity by half. A lower IC50 goes with higher potency. On to `CC(=O)N[C@H]1[C@H](O[C@H]2CC[C@]3(C)[C@H]4CC=C5[C@@H]6CC(C)(C)CC[C@]6(C(=O)O[C@@H]6O[C@H](CO)[C@@H](O)[C@H](O)[C@H]6O[C@@H]6OC[C@](O)(CO)[C@H]6O)[C@H](O)C[C@@]5(C)[C@]4(C)CC[C@H]3C2(C)C)O[C@H](CO[C@@H]2OC[C@H](O)[C@H](O)[C@H]2O)[C@@H](O)[C@@H]1O[C@@H]1OC[C@@H](O)[C@H](O)[C@H]1O` [PURSAETHOSIDE B], for which the 50% inhibitory concentration (IC50) in the experiment on HT-29 and with HCT-116 was over 100 µg/mL each time.

`CC(=O)N[C@H]1[C@H](O[C@H]2CC[C@]3(C)[C@H]4CC=C5[C@@H]6CC(C)(C)CC[C@]6(C(=O)O[C@@H]6O[C@H](CO)[C@@H](O)[C@H](O)[C@H]6O[C@@H]6OC[C@](O)(CO)[C@H]6O)[C@H](O)[C@H](O)[C@@]5(C)[C@]4(C)CC[C@H]3C2(C)C)O[C@H](CO[C@@H]2OC[C@H](O)[C@H](O)[C@H]2O)[C@@H](O)[C@@H]1O[C@@H]1OC[C@@H](O)[C@H](O)[C@H]1O` [PURSAETHOSIDE C]: the IC50 with HT-29 and with HCT-116 was over 100 µg/mL each time.

These data come from ChEMBL document CHEMBL1141769, “Pursaethosides A-E, triterpene saponins from Entada pursaetha” (J Nat Prod, 2005).
